From patent publication US20250034170A1, “SMALL MOLECULE MODULATORS OF GLUCOCEREBROSIDASE ACTIVITY AND USES THEREOF” (Vanqua Bio, Inc., priority 2021, published 2025) come the findings set out here.

Bounds are passed on as bounds.

One assay deals with T1, GCase (Homo sapiens, UniProt P04062).
T1 construct: endogenous in cells; host or cells: HeLa cells
T1 sequence (P04062 40-536): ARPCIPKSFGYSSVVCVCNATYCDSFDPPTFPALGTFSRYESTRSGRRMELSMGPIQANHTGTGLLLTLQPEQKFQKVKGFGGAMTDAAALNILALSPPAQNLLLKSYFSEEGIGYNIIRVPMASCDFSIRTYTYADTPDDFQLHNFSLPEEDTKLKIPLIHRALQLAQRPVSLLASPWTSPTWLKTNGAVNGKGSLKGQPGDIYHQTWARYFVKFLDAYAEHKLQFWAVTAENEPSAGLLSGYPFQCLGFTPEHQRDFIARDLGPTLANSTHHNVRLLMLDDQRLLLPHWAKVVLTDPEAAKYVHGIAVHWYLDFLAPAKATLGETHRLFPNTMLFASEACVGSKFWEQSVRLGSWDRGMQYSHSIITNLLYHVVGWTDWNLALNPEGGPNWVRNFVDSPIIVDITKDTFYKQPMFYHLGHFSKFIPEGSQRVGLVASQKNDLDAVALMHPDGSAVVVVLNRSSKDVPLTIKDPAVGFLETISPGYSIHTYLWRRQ
In words: activation of GCase in a live cell PFB assay in HELA cells. In kind it is cell-based. The note with it: EC50 given as range classes. The method, then:
Exemplary compounds were evaluated for activation of GCase in a live cell PFB assay in HELA cells (essentially as described in Ysselstein et al., “LRRK2 kinase activity regulates lysosomal glucocerebrosidase in neurons derived from Parkinson's disease patients” Nature Communications (2019) 10:5570). […] EC50 ranges: A: <10 μM; B: >10-50 μM; C: >50-100 μM; D: >100 μM.
`FC(F)Cn1ncc2ncc(NC3COC4(C3)CN(c3ccc(C(F)(F)F)nc3)C4)nc21` (centres unmarked) [Cmpd 191] had an EC50 of 10 to 50 µM.

Take `FC(F)Cn1ncc2ncc(NC3COC4(C3)CN(c3cc(C(F)(F)F)ccn3)C4)nc21` (centres unmarked) [Cmpd 192]: the EC50 is less than 10 µM.

With `FC(F)Cn1ncc2ncc(NC3CCC4(CCN(c5ccc(C(F)(F)F)nc5)C4)C3)nc21` (centres unmarked) [Cmpd 193], the EC50 was in the range of 10 to 50 µM.

The compound `FC(F)Cn1ncc2ncc(NC3CCC4(CCN(c5cc(C(F)(F)F)ccn5)C4)C3)nc21` (centres unmarked) [Cmpd 194] came in with an EC50 of less than 10 µM.

On to `FC(F)Cn1ncc2ncc(NC3CCC4(CCN(c5ccc(C(F)(F)F)nc5)CC4)C3)nc21` (centres unmarked) [Cmpd 195], for which the EC50 lay in the range of 10 to 50 µM.

Compound `FC(F)Cn1ncc2ncc(NC3CCC4(CCN(c5cc(C(F)(F)F)ccn5)CC4)C3)nc21` (centres unmarked) [Cmpd 196] displayed an EC50 of more than 100 µM.

The compound `FC(F)Cn1ncc2ncc(N[C@H]3CC[C@@]4(CCN(c5cc(C(F)(F)F)ccn5)C4)CC3)nc21` [Cmpd 197] came in with an EC50 of 10 to 50 µM.

Consider `FC(F)Cn1ncc2ncc(NC3CCC4(CC3)CN(c3ccc(C(F)(F)F)cn3)C4)nc21` [Cmpd 198], for which the EC50 was 10 to 50 µM.

For the compound `FC(F)Cn1ncc2ncc(NC3CCC4(CC3)CN(c3cncc(C(F)(F)F)c3)C4)nc21` [Cmpd 199], the EC50 was less than 10 µM.

Compound `FC(F)Cn1ncc2ncc(NC3CCC4(CC3)CN(c3ccc(C(F)(F)F)nc3)C4)nc21` [Cmpd 200] gave an EC50 of 10 to 50 µM.

Turning to `O=C1N(c2ccc(C(F)(F)F)nc2)CCC12CCN(c1cnc3cnn(CC(F)F)c3n1)C2` (centres unmarked) [Cmpd 201], the EC50 lay within 10 to 50 µM.

Compound `O=C1N(c2ccc(C(F)(F)F)cn2)CCC12CCN(c1cnc3cnn(CC(F)F)c3n1)C2` (centres unmarked) [Cmpd 202] returned an EC50 of 10 to 50 µM.

In turn, `O=C1N(c2cccc(C(F)(F)F)n2)CCC12CCN(c1cnc3cnn(CC(F)F)c3n1)C2` (centres unmarked) [Cmpd 203] had an EC50 of 10 to 50 µM.

Compound `O=C1N(c2cncc(C(F)(F)F)c2)CCC12CCN(c1cnc3cnn(CC(F)F)c3n1)C2` (centres unmarked) [Cmpd 204] registered an EC50 of 10 to 50 µM.

In the case of `FC(F)Cn1ncc2ncc(N3CCC4(CC3)CN(c3ccc(C(F)(F)F)nc3)CCO4)nc21` [Cmpd 205], the EC50 was less than 10 µM.

As to `FC(F)Cn1ncc2ncc(N3CCC4(CC3)CN(c3cncc(C(F)(F)F)c3)CCO4)nc21` [Cmpd 206], the EC50 was less than 10 µM.

In the case of `FC(F)Cn1ncc2ncc(N3CCC4(CC3)CN(c3ccc(C(F)(F)F)cn3)CCO4)nc21` [Cmpd 207], the EC50 was less than 10 µM.

In turn, `FC(F)Cn1ncc2ncc(N3CCC4(CC3)CN(c3cccc(C(F)(F)F)n3)CCO4)nc21` [Cmpd 208] returned an EC50 of 10 to 50 µM.

On to `FC(F)Cn1ncc2ncc(N3CCOC4(CCN(c5ccc(C(F)(F)F)nc5)CC4)C3)nc21` [Cmpd 209], for which the EC50 was less than 10 µM.

`FC(F)Cn1ncc2ncc(N3CCOC4(CCN(c5cncc(C(F)(F)F)c5)CC4)C3)nc21` [Cmpd 210] came in with an EC50 of less than 10 µM.

For the compound `FC(F)Cn1ncc2ncc(N3CCOC4(CCN(c5cccc(C(F)(F)F)n5)CC4)C3)nc21` [Cmpd 211], the EC50 was 10 to 50 µM.

The compound `FC(F)Cn1ncc2ncc(N3CCOC4(CCN(c5ccc(C(F)(F)F)cn5)CC4)C3)nc21` [Cmpd 212] yielded an EC50 of 10 to 50 µM.

For the compound `FC(F)Cn1ncc2ncc(N3CCC4(CCCN(c5ccc(C(F)(F)F)cn5)C4)CC3)nc21` [Cmpd 213], the EC50 is 10 to 50 µM.

`FC(F)Cn1ncc2ncc(N3CCC4(CCCN(c5ccc(C(F)(F)F)nc5)C4)CC3)nc21` [Cmpd 214] yielded an EC50 of 10 to 50 µM.

Take `FC(F)Cn1ncc2ncc(N3CCC4(CCCN(c5cncc(C(F)(F)F)c5)C4)CC3)nc21` [Cmpd 215]: the EC50 is less than 10 µM.

`FC(F)Cn1ncc2ncc(N3CCC4(CCCN(c5cccc(C(F)(F)F)n5)C4)CC3)nc21` [Cmpd 216] registered an EC50 of 10 to 50 µM.

`FC(F)Cn1ncc2ncc(N3CCCC4(CCN(c5cc(C(F)(F)F)ccn5)CC4)C3)nc21` [Cmpd 217] gave an EC50 of 10 to 50 µM.

The compound `FC(F)Cn1ncc2ncc(N3CCCC4(CCN(c5ccc(C(F)(F)F)cn5)CC4)C3)nc21` [Cmpd 218] displayed a concentration for a half-maximal effect (EC50) of 10 to 50 µM.

Compound `FC(F)Cn1ncc2ncc(N3CCCC4(CCN(c5cccc(C(F)(F)F)n5)CC4)C3)nc21` [Cmpd 219] yielded an EC50 of 10 to 50 µM.

As for `FC(F)Cn1ncc2ncc(N3CCCC4(CCN(c5ccc(C(F)(F)F)nc5)CC4)C3)nc21` [Cmpd 220], the EC50 is less than 10 µM.

Compound `FC(F)Cn1ncc2ncc(N3CCCC4(CCN(c5cncc(C(F)(F)F)c5)CC4)C3)nc21` [Cmpd 221] displayed an EC50 of 10 to 50 µM.

Consider `FC(F)Cn1ncc2ncc(N3CC4(CCN(c5ccnc(C(F)(F)F)c5)C4)C3)nc21` [Cmpd 222], for which the EC50 fell in the range of 10 to 50 µM.

`FC(F)Cn1ncc2ncc(N3CCC4(CN(c5ccnc(C(F)(F)F)c5)C4)C3)nc21` [Cmpd 223] showed an EC50 of less than 10 µM.

Take `FC(F)Cn1ncc2ncc(N3CCC4(CCCN(c5cc(C(F)(F)F)ccn5)C4)CC3)nc21` [Cmpd 224]: the EC50 is 10 to 50 µM.

Compound `FC(F)Cn1ncc2ncc(N3CCC4(CCCN(c5ccnc(C(F)(F)F)c5)C4)CC3)nc21` [Cmpd 225] showed an EC50 of less than 10 µM.

For the compound `FC(F)Cn1ncc2ncc(N3CCCC4(CCN(c5ccnc(C(F)(F)F)c5)CC4)C3)nc21` [Cmpd 226], the EC50 is more than 100 µM.

`FC(F)Cn1ncc2ncc(N3CCC4(CC3)CC(Nc3ccc(C(F)(F)F)cn3)C4)nc21` [Cmpd 227] came in with an EC50 of 10 to 50 µM.

`FC(F)Cn1ncc2ncc(N3CCC4(CC3)CC(Nc3cncc(C(F)(F)F)c3)C4)nc21` [Cmpd 228] had an EC50 of more than 100 µM.

In the case of `FC(F)Cn1ncc2ncc(N3CCC4(CC3)CC(Nc3ccnc(C(F)(F)F)c3)C4)nc21` [Cmpd 229], the half-maximal effective concentration (EC50) lay in the range of 10 to 50 µM.

For `FC(F)Cn1ncc2ncc(N3CCC4(CC3)CC(Nc3ccc(C(F)(F)F)nc3)C4)nc21` [Cmpd 230], the concentration giving a half-maximal response (EC50) was 10 to 50 µM.

Compound `FC(F)Cn1ncc2ncc(N3CCC4(CC3)CC(Nc3cc(C(F)(F)F)ccn3)C4)nc21` [Cmpd 231] returned an EC50 of 10 to 50 µM.

Compound `FC(F)Cn1ncc2ncc(N3CCC4(CC3)CC(Nc3cccc(C(F)(F)F)n3)C4)nc21` [Cmpd 232] displayed an EC50 of 10 to 50 µM.

`FC(F)(F)c1ccc(N2CCC3(CCN(c4cncc(-c5nncs5)n4)CC3)C2)cn1` [Cmpd 233] showed an EC50 of less than 10 µM.

Still in this assay, the particulars now being: activation of GCase, EC50 ranges.
As for `C[C@H]1CN(c2cnc3cnn(CC(F)F)c3n2)CC[C@@]12CCN(c1cccc(C(F)(F)F)n1)C2=O` (racemic) [Cmpd 669], the EC50 lay in the range of 10 to 50 µM.

For `FC(F)(F)c1ccc(N2CCC3(CCN(c4cncc(-c5nncs5)n4)CC3)C2)nc1` [Cmpd 234], the concentration for a half-maximal effect (EC50) is 10 to 50 µM.

`FC(F)(F)c1cncc(N2CCC3(CCN(c4cncc(-c5nncs5)n4)CC3)C2)c1` [Cmpd 235] came in with an EC50 of 50 to 100 µM.

Compound `O=C1CC2(CCN(c3cncc(-c4nncs4)n3)CC2)CN1c1ccc(C(F)(F)F)nc1` [Cmpd 236] returned an EC50 of less than 10 µM.

Regarding `O=C1CC2(CCN(c3cncc(-c4nncs4)n3)CC2)CN1c1cncc(C(F)(F)F)c1` [Cmpd 237], the EC50 was 10 to 50 µM.

Compound `FC(F)(F)c1ccc(N2CCC3(CCN(c4cncc(-n5ccnc5)n4)CC3)C2)cn1` [Cmpd 238] gave a concentration giving a half-maximal response (EC50) of 10 to 50 µM.

Compound `FC(F)(F)c1ccc(N2CCC3(CCN(c4cncc(-n5cccn5)n4)CC3)C2)cn1` [Cmpd 239] yielded a 50% effective concentration (EC50) of less than 10 µM.

`FC(F)(F)c1ccc(N2CCC3(CCN(c4nccn5cncc45)CC3)C2)cn1` [Cmpd 240] displayed an EC50 of 50 to 100 µM.

On to `O=C1N(c2cc(C(F)(F)F)ccn2)CCC12CCN(c1cncc(-n3cccn3)n1)CC2` [Cmpd 241], for which the EC50 lay in the range of 10 to 50 µM.

The compound `O=C1N(c2cc(C(F)(F)F)ccn2)CCC12CCN(c1cncc(-n3ccnc3)n1)CC2` [Cmpd 242] came in with a concentration giving a half-maximal response (EC50) of 10 to 50 µM.

Consider `FC(F)(F)COc1cncc(N2CCC3(CCN(c4ccc(C(F)(F)F)nc4)C3)CC2)n1` [Cmpd 243], for which the concentration for a half-maximal effect (EC50) is less than 10 µM.

`O=C1N(c2cc(C(F)(F)F)ccn2)CCC12CCN(c1cncc(OCC(F)(F)F)n1)CC2` [Cmpd 244]: the EC50 is 10 to 50 µM.

Take `O=C1N(c2cc(C(F)(F)F)ccn2)CCC12CCN(c1cncc(N3CCCC3)n1)CC2` [Cmpd 245]: the EC50 lay within 10 to 50 µM.

`O=C1N(c2cc(C(F)(F)F)ccn2)CCC12CCN(c1cncc(N3CCOCC3)n1)CC2` [Cmpd 246] came in with a 50% effective concentration (EC50) of 10 to 50 µM.

As to `O=C1N(c2ccc(C(F)(F)F)nc2)CC(c2ccccc2)C12CCN(c1cnc3cnn(CC(F)F)c3n1)CC2` (centres unmarked) [Cmpd 247], the concentration for a half-maximal effect (EC50) was less than 10 µM.

`FC(F)(F)c1ccc(N2CCC3(CCN(c4cncc(N5CCCC5)n4)CC3)C2)cn1` [Cmpd 248]: the concentration giving a half-maximal response (EC50) was less than 10 µM.

As to `FC(F)(F)c1ccc(N2CCC3(CCN(c4cncc(N5CCOCC5)n4)CC3)C2)cn1` [Cmpd 249], the EC50 fell in the range of 10 to 50 µM.

In turn, `Cc1nccn1-c1cncc(N2CCC3(CCN(c4ccc(C(F)(F)F)nc4)C3)CC2)n1` [Cmpd 250] gave a 50% effective concentration (EC50) of 10 to 50 µM.

For `FC(F)(F)c1ccc(N2CCC3(CCN(c4cncc(-c5ccccc5)n4)CC3)C2)cn1` [Cmpd 251], the EC50 was less than 10 µM.

`FC(F)(F)c1ccc(N2CCC3(CCN(c4cncc(-c5ncccn5)n4)CC3)C2)cn1` [Cmpd 252] showed an EC50 of 10 to 50 µM.

Take `FC(F)(F)c1ccc(N2CCC3(CCN(c4cncc(-n5cncn5)n4)CC3)C2)cn1` [Cmpd 253]: the 50% effective concentration (EC50) was less than 10 µM.

Take `CC(C)Oc1cncc(N2CCC3(CCN(c4ccc(C(F)(F)F)nc4)C3)CC2)n1` [Cmpd 254]: the EC50 was 10 to 50 µM.
